Assay results reported in patent US7144867B2, “Anticancer glycoside compounds” (priority 2004, dated 2006).
≈ marks a conversion by molar mass, not a printed value.

Columns and labels:
[1] = test system: angiogenesis in the animal; test: Treatment of animals, anti-angiogenic evaluation (Example 6); assay type: in vivo; details: contemplated; range of appropriate doses
Protocol: Frondoside A or B is evaluated for anti-angiogenic (e.g., for research, drug screening or therapeutic purposes) in live animals. Animals (e.g., having or modeling a disease characterized by unwanted angiogenesis) are treated with a range of appropriate doses of Frondoside A or B. Exemplary dosages and dosage schedules include, but are not limited to, those described herein.

[2] = test system: HUVEC (human umbilical vein endothelial cells); test: Angiogenesis, tube formation on Matrigel, Frondoside B (Example 5); assay type: cell-based; details: concentrations in the range of 1 μM and greater; contemplated
Protocol: (§1) Test Substance and Concentration.
Cell Line and Culture Media. […] The culture medium used is Endothelial Cell Growth Medium with 10% fetal bovine serum, which is supplemented with 1% Antibiotic-Antimycotic.
Evaluation of anti-proliferation for test substances. Matrigel matrix is thawed, kept on ice at 4° C. and 50 μL transferred to each well of a 96-microwell tissue culture plate. The plate is incubated at 37° C. for at least one hour to allow the matrix solution to solidify before treatment.
(§2) Aliquots of 200 μl of (HUVEC) suspension (about 1.5×10^4 cells/well) are placed in 96-well microtiter plate. Two microliters of compound test solution or vehicle (40% DMSO) is then added per well in duplicate and incubated at 5% CO2 at 37° C. for 18 hours. The final concentration of DMSO is 0.4%. […] Failure to form continuous networks between cell bodies in the presence of test substance is photographed and scored as to the extent of tube disruption at a magnification of 40×. […] The minimum inhibitory concentration (MIC) is calculated to assess the effect of the test substance on angiogenesis.

[3] = test system: cancer cells; test: Anti-cancer / apoptotic promoting activity, method not described
[4] = test system: PC-3 (human prostate adenocarcinoma); test: cells; details: for Percent Growth (Mean ± SEM, n = 2): 72-hour
Protocol: Test Substance and Concentration. Frondoside A (FAS) was dissolved in 100% DMSO and then diluted with sterile distilled water to obtain initial working solutions of 1000, 300, 100, 30, and 10 μM in 40% DMSO. […]
Cell Line and Culture Media. The tumor cell line PC-3 (human prostate adenocarcinoma), obtained from American Type Culture Collection (ATCC CRL-1435), was incubated in air atmosphere of 5% CO2 at 37° C. The culture medium used was F-12K Nutrient Mixture (Kaighn's Modification) with 3% fetal bovine serum, which was supplemented with 1% Antibiotic-Antimycotic.
Evaluation of anti-proliferation for test substances. Aliquots of 100 μl of cell suspension (about 2.5×10^3 cells/well) were placed in 96-well microtiter plates in an atmosphere of 5% CO2 at 37° C. […] Thus, the final concentration of DMSO was 0.4%. The Frondoside A was evaluated for possible inhibitory effects on cell proliferation at concentrations of 10, 3, 1, 0.3 and 0.1 μM. At the end of incubation, 20 μl of 90% alamarBlue reagent was added to each well for another 6-hour incubation before detection of cell viability by fluorescent intensity. Fluorescent intensity was measured using a Spectrafluor Plus plate reader with excitation at 530 nm and emission at 590 nm.
(§3) Determination of IC50, TGI and LC50. The measured results was calculated by the following formula: PG(%)=100%×(Mean Ftest−Mean Ftime0)/(Mean Fctrl−Mean Ftime0) If (Mean Ftest−Mean Ftime0)<0, then PG (%)=100%×(Mean Ftest−Mean Ftime0)/(Mean Ftime0−Mean Fblank) Where: • PG: percent growth • Mean Ftime0=The average of 2 measured fluorescent intensities of reduced alamarBlue at the time just before exposure of cells to the test substance. • Mean Ftest=The average of 2 measured fluorescent intensities of alamarBlue after 72-hour exposure of cells to the test substance. • Mean Fctrl=The average of 2 measured fluorescent intensities of alamarBlue after 72-hour incubation without the test substance. • Mean Fblank=The average of 2 measured fluorescent intensities of alamarBlue in medium without cells after 72-hour incubation.

[5] = test system: DLD-1 (human colon adenocarcinoma); test: cells; details: for Percent Growth (Mean ± SEM, n = 2): 72-hour
Protocol: Test Substance and Concentration. Frondoside A (CBR-24) was dissolved in 100% DMSO and then diluted with sterile distilled water to obtain initial working solutions of 10000, 1000, 100, 10, and 1 μM in 40% DMSO. A 100-fold dilution was further made in culture media to generate final assay concentration of 100, 10, 1, 0.1 and 0.01 μM in 0.4% of DMSO.
Cell Line and Culture Media. The tumor cell line DLD-1 (human colon adenocarcinoma), obtained from American Type Culture Collection (ATCC CCL-221), was incubated in 95% air-5% CO2 gas mixture at 37° C. The culture medium used was RPMI 1640 with 10% fetal bovine serum, which was supplemented with 1% Antibiotic-Antimycotic.
Evaluation of anti-proliferation for test substances. Aliquots of 100 μl of cell suspension (about 2.5×10^3 cells/well) were placed in 96-well microtiter plates in an atmosphere of 5% CO2 at 37° C. […] Thus, the final concentration of DMSO was 0.4%. The Frondoside A was evaluated for possible inhibitory effects on cell proliferation at concentrations of 100, 10, 1, 0.1 and 0.01 μM. At the end of incubation, 20 μl of 90% alamarBlue reagent was added to each well for another 6 hour incubation before detection of cell viability by fluorescent intensity. Fluorescent intensity was measured using a Spectrafluor Plus plate reader with excitation at 530 nm and emission at 590 nm.
as §3, with “were” for “was”

[6] = test system: HUVEC (human umbilical vein endothelial cells); test: Angiogenesis, tube formation on Matrigel; assay type: cell-based
Protocol: as §1
Cell Line and Culture Media.
Evaluation of anti-proliferation for test substances. Matrigel matrix was thawed, kept on ice at 4° C. and 50 μL transferred to each well of a 96-microwell tissue culture plate. The plate was incubated at 37° C. for at least one hour to allow the matrix solution to solidify before treatment.
as §2, with “cells/well) were” for “cells/well) are”, “DMSO) was” for “DMSO) is”, “DMSO was” for “DMSO is”, “substance was” for “substance is”, “(MIC) was” for “(MIC) is”

3 beta-O-{3-O-methyl-beta-D-glucopyranosyl-(1→3)-O-beta-D-6-sulfonatoglucopyranosyl-(1→4)-O-[beta-D-xylopyranosyl-(1→2)]-O-beta-D-quinovopyranosyl-(1→2)-O-beta-D-4-sulfonatoxylopyranosyl}-holost-7-ene sodium (or potassium) salt [Frondoside B]
angiogenesis in the animal [1]: inhibits angiogenesis
inhibition of tube formation relative to the vehicle-treated controls [2]: significant inhibition of tube formation
anti-cancer activity ([3]; no test described): showed anti-cancer activity
apoptotic promoting activity in cancer cells ([3]; no test described for Frondoside B): apoptotic promoting activity

CO[C@@]12[C@H](COC(N)=O)C3=C(C(=O)C(C)=C(N)C3=O)N1C[C@@H]1N[C@@H]12 [Mitomycin, reference compound]
IC50 ([4]; Homo sapiens, read-out: IC50 (50% Inhibition Concentration)): 0.13 µM
Percent Growth (Mean ± SEM, n = 2) ([4]; PC-3, 0.001 μM): 103 ± 1%
Percent Growth (Mean ± SEM, n = 2) ([4]; PC-3, 0.01 μM): 107 ± 1%
Percent Growth (Mean ± SEM, n = 2) ([4]; PC-3, 0.1 μM): 35 ± 0%
Percent Growth (Mean ± SEM, n = 2) ([4]; PC-3, 1 μM): 6 ± 1%
Percent Growth (Mean ± SEM, n = 2) ([4]; PC-3, 10 μM): −77 ± 2%
TGI (Total Growth Inhibition) ([4]; PC-3, semi-quantitative, nonlinear regression): 0.75 µM
activity of standard reference agent on PC-3 growth ([4]; at <10 mM): Significant activity
Percent Growth (Mean ± SEM, n = 2) ([5]; DLD-1, 0.001 μM): 96 ± 5%
Percent Growth (Mean ± SEM, n = 2) ([5]; DLD-1, 0.01 μM): 83 ± 8%
Percent Growth (Mean ± SEM, n = 2) ([5]; DLD-1, 0.1 μM): 66 ± 5%
Percent Growth (Mean ± SEM, n = 2) ([5]; DLD-1, 1 μM): 31 ± 4%
Percent Growth (Mean ± SEM, n = 2) ([5]; DLD-1, 10 μM): −11 ± 7%
TGI (Total Growth Inhibition) ([5]; DLD-1, semi-quantitative, nonlinear regression): 5.5 µM
IC50 ([5]; Homo sapiens, DLD-1, read-out: IC50 (50% Inhibition Concentration)): 0.33 µM
activity of positive control on DLD-1 growth ([5]; at <10 μM): Significant activity

Cc1ccc(C(=O)Nc2ccc(S(=O)(=O)O)c3cc(S(=O)(=O)O)cc(S(=O)(=O)O)c23)cc1NC(=O)c1cccc(NC(=O)Nc2cccc(C(=O)Nc3cc(C(=O)Nc4ccc(S(=O)(=O)O)c5cc(S(=O)(=O)O)cc(S(=O)(=O)O)c45)ccc3C)c2)c1 [Suramin, reference compound]
inhibition of tube formation, standard reference agent ([6]; 10 μM): significant inhibition
inhibition at 0.3 µM ([6]; Homo sapiens, HUVEC, 0.3 μM, 18 hours, read-out: %, Inhibition of the total tube length (Mean ± SEM, n = 2)): -1 ± 8%
inhibition at 1 µM ([6]; Homo sapiens, HUVEC, 1 μM, 18 hours, read-out: %, Inhibition of the total tube length (Mean ± SEM, n = 2)): -1 ± 7%
inhibition at 3 µM ([6]; Homo sapiens, HUVEC, 3 μM, 18 hours, read-out: %, Inhibition of the total tube length (Mean ± SEM, n = 2)): 20 ± 8%
inhibition at 10 µM ([6]; Homo sapiens, HUVEC, 10 μM, 18 hours, read-out: %, Inhibition of the total tube length (Mean ± SEM, n = 2)): 74%
inhibition at 30 µM ([6]; Homo sapiens, HUVEC, 30 μM, 18 hours, read-out: %, Inhibition of the total tube length (Mean ± SEM, n = 2)): 100%
MIC (Minimum Inhibitory Concentration) ([6]; tube formation, significant inhibition ≧30%): 10 µM (≈ 13 µg/mL)
